Assay results published in ChEMBL document CHEMBL5338751, “Discovery of the First-in-Class Intestinal Restricted FXR and FABP1 Dual Modulator ZLY28 for the Treatment of Nonalcoholic Fatty Liver Disease” (J Med Chem, 2023).
Activity calls are given as the source filed them. The rule behind the calls is not given here.

What was measured:
[1] = biological target: T1, Bile acid receptor (Homo sapiens, UniProt Q96RI1); experiment: Agonist activity at FXR-LBD (unknown origin) using fluorescein-coactivator peptide incubated for 3 hrs by TR-FRET assay
T1 sequence (Q96RI1 whole entry): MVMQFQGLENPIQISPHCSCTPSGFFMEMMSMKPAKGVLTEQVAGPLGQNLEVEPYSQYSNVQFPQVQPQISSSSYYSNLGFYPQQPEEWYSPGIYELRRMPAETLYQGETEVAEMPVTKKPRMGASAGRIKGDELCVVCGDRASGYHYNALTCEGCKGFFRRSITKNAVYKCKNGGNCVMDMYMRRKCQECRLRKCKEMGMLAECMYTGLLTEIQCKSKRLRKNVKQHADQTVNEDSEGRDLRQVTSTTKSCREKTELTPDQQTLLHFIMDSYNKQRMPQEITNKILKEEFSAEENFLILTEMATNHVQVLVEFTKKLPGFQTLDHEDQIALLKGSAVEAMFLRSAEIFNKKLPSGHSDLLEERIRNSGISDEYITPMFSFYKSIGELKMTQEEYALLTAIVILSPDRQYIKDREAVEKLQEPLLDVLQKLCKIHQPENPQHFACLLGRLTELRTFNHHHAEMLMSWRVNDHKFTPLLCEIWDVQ

[2] = biological target: T2, Peroxisome proliferator-activated receptor alpha (Homo sapiens, UniProt Q07869); experiment: Agonist activity at pBIND-PPARalpha (unknown origin) transfected in HepG2 cells incubated for 18 hrs by renilla/firefly based dual-glo luciferase assay; assay type: cell-based
T2 sequence (Q07869 whole entry): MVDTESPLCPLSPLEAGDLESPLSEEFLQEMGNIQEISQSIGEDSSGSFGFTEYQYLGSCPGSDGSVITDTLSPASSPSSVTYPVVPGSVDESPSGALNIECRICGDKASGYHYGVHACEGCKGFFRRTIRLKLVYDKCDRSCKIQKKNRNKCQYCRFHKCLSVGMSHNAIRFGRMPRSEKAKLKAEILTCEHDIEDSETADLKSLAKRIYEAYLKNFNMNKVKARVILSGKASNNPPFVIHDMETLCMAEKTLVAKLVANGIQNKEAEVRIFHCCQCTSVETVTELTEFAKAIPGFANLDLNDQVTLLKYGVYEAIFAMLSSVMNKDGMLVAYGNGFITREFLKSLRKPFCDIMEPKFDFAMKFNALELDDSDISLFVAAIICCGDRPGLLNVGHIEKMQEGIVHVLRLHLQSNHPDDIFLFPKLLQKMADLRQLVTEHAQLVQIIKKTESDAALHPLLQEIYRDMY

[3] = Activation of Gal-DBD and NHRLBD fused RXRalpha (unknown origin) transfected in African green monkey CV-1 cells by luciferase reporter assay; assay type: cell-based; conditions: Homo sapiens
[4] = biological target: Estrogen receptor (Homo sapiens, UniProt P03372); experiment: Activation of Gal-DBD and NHRLBD fused ERalpha (unknown origin) transfected in African green monkey CV-1 cells by luciferase reporter assay; assay type: cell-based
Chain of Estrogen receptor (P03372 whole entry, the tested form may be a part): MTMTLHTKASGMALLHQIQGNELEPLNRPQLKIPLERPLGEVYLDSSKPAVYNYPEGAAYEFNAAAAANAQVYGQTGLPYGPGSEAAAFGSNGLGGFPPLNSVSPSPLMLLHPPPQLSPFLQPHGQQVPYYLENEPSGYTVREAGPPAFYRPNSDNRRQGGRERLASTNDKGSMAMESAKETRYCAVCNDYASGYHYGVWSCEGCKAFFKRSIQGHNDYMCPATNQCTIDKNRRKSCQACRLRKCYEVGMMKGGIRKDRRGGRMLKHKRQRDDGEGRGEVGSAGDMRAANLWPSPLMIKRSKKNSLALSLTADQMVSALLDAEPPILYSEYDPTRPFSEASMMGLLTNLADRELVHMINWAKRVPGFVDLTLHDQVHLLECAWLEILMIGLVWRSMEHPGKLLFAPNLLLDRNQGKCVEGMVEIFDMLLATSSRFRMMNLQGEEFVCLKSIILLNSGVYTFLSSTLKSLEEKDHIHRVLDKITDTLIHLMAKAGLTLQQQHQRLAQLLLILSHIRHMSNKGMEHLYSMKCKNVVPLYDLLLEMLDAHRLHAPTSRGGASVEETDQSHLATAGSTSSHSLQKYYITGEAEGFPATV

[5] = biological target: Free fatty acid receptor 1 (Homo sapiens, UniProt O14842); experiment: Agonist activity at human FFA1 stably expressed in CHO cells assessed as intracellular calcium flux by FLIPR assay; assay type: functional, cell-based
Chain of Free fatty acid receptor 1 (O14842 whole entry): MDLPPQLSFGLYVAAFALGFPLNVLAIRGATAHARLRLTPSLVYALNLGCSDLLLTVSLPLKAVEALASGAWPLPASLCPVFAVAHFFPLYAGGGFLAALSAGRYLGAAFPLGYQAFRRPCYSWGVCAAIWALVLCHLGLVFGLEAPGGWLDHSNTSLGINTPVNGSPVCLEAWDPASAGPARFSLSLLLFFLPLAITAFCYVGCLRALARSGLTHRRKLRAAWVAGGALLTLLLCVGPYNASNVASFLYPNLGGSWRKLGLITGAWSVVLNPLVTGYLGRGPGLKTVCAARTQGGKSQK

[6] = biological target: Fatty acid-binding protein, heart (Homo sapiens, UniProt P05413); experiment: Displacement of 8-anilino-1-naphthalene-sulfonic acid from FABP3 (unknown origin) incubated for 3 mins by fluorescence based assay
Chain of Fatty acid-binding protein, heart (P05413 whole entry): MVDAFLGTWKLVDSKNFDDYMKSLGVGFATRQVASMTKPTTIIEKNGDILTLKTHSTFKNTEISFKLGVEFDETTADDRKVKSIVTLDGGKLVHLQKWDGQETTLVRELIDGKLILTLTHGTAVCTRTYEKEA

[7] = biological target: T3, Bile acid receptor (Mus musculus) (UniProt Q60641); experiment: Activation of FXR in C57BL/6 mouse ileum assessed as upregulation of FGF15 gene expression in ileum at 20 mg/kg, po administered for 5 days and measured after 1 hr post final dose by RT-PCR analysis; assay type: organism-based; conditions: filed as activator, time 5.0 day
T3 sequence (whole entry): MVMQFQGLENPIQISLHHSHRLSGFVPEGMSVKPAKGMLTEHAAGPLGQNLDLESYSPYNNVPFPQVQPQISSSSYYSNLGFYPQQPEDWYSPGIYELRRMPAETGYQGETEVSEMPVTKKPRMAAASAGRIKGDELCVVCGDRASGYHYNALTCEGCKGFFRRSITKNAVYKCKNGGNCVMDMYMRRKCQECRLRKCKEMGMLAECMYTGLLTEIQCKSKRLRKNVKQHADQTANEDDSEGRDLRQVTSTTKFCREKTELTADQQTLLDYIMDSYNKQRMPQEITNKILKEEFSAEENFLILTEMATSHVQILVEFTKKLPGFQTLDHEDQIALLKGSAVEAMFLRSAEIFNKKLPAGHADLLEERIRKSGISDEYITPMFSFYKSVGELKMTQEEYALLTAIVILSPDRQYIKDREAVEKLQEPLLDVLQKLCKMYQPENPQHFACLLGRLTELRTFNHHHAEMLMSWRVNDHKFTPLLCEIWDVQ

[8] = tested on: Mus musculus; experiment: Anti-NASH activity in western diet and CCl4-induced nonalcoholic steatohepatitis C57BL/6 mouse assessed as alleviation of hepatic steatosis at 20 mg/kg, po administered for 12 weeks starting from week 8 and change in dose for every 5 days; assay type: functional, organism-based; conditions: time 4.0 weeks
[9] = tested on: Mus musculus; experiment: Anti-NASH activity in western diet and CCl4-induced nonalcoholic steatohepatitis C57BL/6 mouse assessed as alleviation of ballooning at 20 mg/kg, po administered for 12 weeks starting from week 8 and change in dose for every 5 days; assay type: functional, organism-based; conditions: time 4.0 weeks
[10] = tested on: Mus musculus; experiment: In vivo inhibition of FABP1 in western diet and CCl4-induced nonalcoholic steatohepatitis C57BL/6 mouse assessed as reduction in NEFA uptake in fecal at 20 mg/kg, po administered for 12 weeks starting from week 8 and change in dose for every 5 days; assay type: functional, organism-based; conditions: time 4.0 weeks
[11] = tested on: Mus musculus; experiment: In vivo inhibition of FABP1 in western diet and CCl4-induced nonalcoholic steatohepatitis C57BL/6 mouse assessed as increase in excretion of NEFA in fecal at 20 mg/kg, po administered for 12 weeks starting from week 8 and change in dose for every 5 days; assay type: functional, organism-based; conditions: time 4.0 weeks
[12] = tested on: Mus musculus; experiment: Anti-NASH activity in western diet and CCl4-induced nonalcoholic steatohepatitis C57BL/6 mouse assessed as downregulation of IL-1beta expression level at 20 mg/kg, po administered for 12 weeks starting from week 8 and change in dose for every 5 days by ELISA; assay type: functional, organism-based; conditions: time 4.0 weeks
[13] = biological target: T3, Bile acid receptor (Mus musculus); experiment: In vivo activation of FXR pathway in western diet and CCl4-induced nonalcoholic steatohepatitis C57BL/6 mouse model assessed as upregulation of FGF15 gene expression in ileum at 20 mg/kg, po administered for 12 weeks starting from week 8 and change in dose for every 5 days by RT-PCR analysis; assay type: functional, organism-based; conditions: time 4.0 weeks
[14] = biological target: T3, Bile acid receptor (Mus musculus); experiment: In vivo activation of FXR pathway in western diet and CCl4-induced nonalcoholic steatohepatitis C57BL/6 mouse model assessed as upregulation of OST-beta gene expression in ileum at 20 mg/kg, po administered for 12 weeks starting from week 8 and change in dose for every 5 days by RT-PCR analysis; assay type: functional, organism-based; conditions: time 4.0 weeks
[15] = Subacute toxicity in ICR mouse assessed as changes in serum AST level at 500 mg/kg/day, po administered for 14 days; assay type: organism-based; conditions: in vivo, 336 h, time 14 day
[16] = Subacute toxicity in ICR mouse assessed as changes in serum BUN level at 500 mg/kg/day, po administered for 14 days; assay type: organism-based; conditions: in vivo, 336 h, time 14 day
[17] = Subacute toxicity in ICR mouse assessed as changes in serum UA level at 500 mg/kg/day, po administered for 14 days; assay type: organism-based; conditions: in vivo, 336 h, time 14 day

Compound: O=C(O)C1(c2cccc(-c3ccc(OCc4c(-c5c(Cl)cccc5Cl)noc4C4CC4)cc3)c2)CC1
- EC50 [1]: 0.143 µM
- EC50 [2]: > 10 µM
- EC50 [3]: > 10 µM
- EC50 [4]: > 10 µM
- EC50 [5]: > 10 µM
- IC50 [6]: > 30 µM
- Activity [7]: Active
- Activity [8]: Active
- Activity [9]: Active
- Activity [10]: Active
- Activity [11]: Active
- Activity [12]: Active
- Activity [13]: Active
- Activity [14]: Active
- Activity [15]: Non-Toxic
- Activity [16]: Non-Toxic
- Activity [17]: Non-Toxic
